Values belong to the molecule of their own block, whether it stands above or below them.
Tests used:
BCRP [1] = biological target: T1, BCRP (Homo sapiens, UniProt Q9UNQ0); test: bidirectional transport assay across hCMEC/D3 cell monolayer with or without Ko143; conditions: for transport by BCRP (conclusion of bidirectional transport assay): ER ≥ 1.5 and significantly reduced by Ko143; for Papp A→B at 2 h, 300 µM / Papp A→B at 2 h, 600 μM / Papp B→A at 2 h, 300 µM / Papp B→A at 2 h, 600 μM / efflux ratio at 2 h / efflux ratio at 2 h, 300 µM / efflux ratio at 2 h, 600 μM / Papp A→B at 2 h, 40 μM / Papp A→B at 2 h, 80 μM / Papp B→A at 2 h, 40 μM / Papp B→A at 2 h, 80 μM / efflux ratio at 2 h, 40 μM / efflux ratio at 2 h, 80 μM: human
T1 sequence (Q9UNQ0 1-655): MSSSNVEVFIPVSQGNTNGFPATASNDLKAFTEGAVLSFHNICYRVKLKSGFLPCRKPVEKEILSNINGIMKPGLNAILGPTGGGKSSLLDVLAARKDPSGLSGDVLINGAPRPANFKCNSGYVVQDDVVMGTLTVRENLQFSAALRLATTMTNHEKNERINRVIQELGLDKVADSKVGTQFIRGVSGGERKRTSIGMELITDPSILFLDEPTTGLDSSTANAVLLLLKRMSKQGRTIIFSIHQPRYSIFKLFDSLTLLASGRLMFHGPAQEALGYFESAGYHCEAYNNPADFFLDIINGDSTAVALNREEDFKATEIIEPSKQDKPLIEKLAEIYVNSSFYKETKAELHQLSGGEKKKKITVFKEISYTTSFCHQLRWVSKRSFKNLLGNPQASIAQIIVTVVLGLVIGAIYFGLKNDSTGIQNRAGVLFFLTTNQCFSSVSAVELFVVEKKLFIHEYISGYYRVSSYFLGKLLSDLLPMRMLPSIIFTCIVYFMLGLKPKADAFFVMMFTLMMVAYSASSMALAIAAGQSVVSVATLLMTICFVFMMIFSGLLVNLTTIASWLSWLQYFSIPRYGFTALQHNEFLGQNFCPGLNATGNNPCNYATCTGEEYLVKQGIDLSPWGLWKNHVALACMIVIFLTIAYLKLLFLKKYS
Procedure: For transport assays, hCMEC/D3 cells were seeded on collagen type I‐coated Transwell inserts (polycarbonate 12‐well, pore size […]) (cat. no. CLS3460; Corning, NY, USA) at 80% confluency and cultured as described in section 2.5. In brief, the drug was dissolved in Hanks’ balanced salt solution supplemented with 10 mM HEPES, 1 mM Na‐Pyruvate, pH 7.4 at 37°C (transport buffer). Initially, both sides of the chamber were washed with 1X PBS and the assay was performed with pre‐warmed transport buffer. 0.5 ml or 1.5 ml of the drug solution, with or without BCRP‐specific inhibitor Ko143 (1 μM) was added to either the apical side or basolateral side of the monolayer, respectively, and fresh transport buffer was added to the opposite side. Aliquots of 100 μl samples were taken from the opposite sides every 30 min for 2 h, and the same amount of fresh transport buffer was added to the same chamber after each sampling. […] Concentrations of ASMs were evaluated by HPLC or LC/MS. Apparent permeability (Papp) is defined as the transport rate of ASM and efflux ratio (ER) was calculated as the ratio of Papp in the basolateral‐to‐apical (Papp(B→A)) direction to the Papp in the apical‐to‐basolateral (Papp(A→B)) direction. The samples were stored at −20°C until analysis. […] Fluorescence detection of lucifer yellow (excitation at 430 nm, and emission at 535 nm) was carried out with Infinite 200 PRO NanoQuant (Tecan, Zurich, Switzerland). […] All transport assays were performed in triplicate.
The calculation for apparent permeability coefficient, Papp, was performed as described before. Papp=dQr/dt/A×C0 where dQr/dt is the cumulative amount in the receiver side vs time in μM/s
A is the area of the cell monolayer
C0 is the initial concentration of the dosing solution (μM).
And, Efflux ratio=Papp(B−to−A)/Papp(A−to−B)

BCRP [2] = biological target: T1, BCRP; conditions: previous data; cited from earlier work
[3] = set-up: method as in Johannessen, 2004; Patsalos, 2008; Lee, 2016; conditions: patients with epilepsy; ref Johannessen, 2004; Patsalos, 2008; Lee, 2016; cited from earlier work
BCRP [4] = biological target: T1, BCRP; set-up: host or cells: MCF-7 cells overexpressing BCRP; conditions: previous study; cited from earlier work

transport by BCRP (conclusion of bidirectional transport assay) (BCRP [1]; hCMEC/D3 monolayer): transports
Papp A→B at 2 h, 300 µM (BCRP [1]; pH 7.4): 0.19 ×10⁻⁶ cm/s
Papp A→B at 2 h, 600 μM (BCRP [1]; pH 7.4): 0.34 ×10⁻⁶ cm/s
Papp B→A at 2 h, 300 µM (BCRP [1]; pH 7.4): 0.31 ×10⁻⁶ cm/s
Papp B→A at 2 h, 600 μM (BCRP [1]; pH 7.4): 0.64 ×10⁻⁶ cm/s
efflux ratio at 2 h (BCRP [1]; pH 7.4, Efflux ratio (ER) without inhibitor, at all the tested concentrations, hCMEC/D3 monolayer): > 1.5
efflux ratio at 2 h, 300 µM (BCRP [1]; pH 7.4, Efflux ratio (ER), hCMEC/D3 without inhibitor Ko143, 300 μM, hCMEC/D3 monolayer): > 1.5
efflux ratio at 2 h, 600 μM (BCRP [1]; pH 7.4, Efflux ratio (ER), hCMEC/D3 without inhibitor Ko143, 600 μM, hCMEC/D3 monolayer): > 1.5
Papp A→B at 2 h, 300 µM (BCRP [1]; pH 7.4, with Ko143 1 μM): 0.21 ×10⁻⁶ cm/s
Papp A→B at 2 h, 600 μM (BCRP [1]; pH 7.4, with Ko143 1 μM): 0.33 ×10⁻⁶ cm/s
Papp B→A at 2 h, 300 µM (BCRP [1]; pH 7.4, with Ko143 1 μM): 0.24 ×10⁻⁶ cm/s
Papp B→A at 2 h, 600 μM (BCRP [1]; pH 7.4, with Ko143 1 μM): 0.37 ×10⁻⁶ cm/s
efflux ratio at 2 h (BCRP [1]; pH 7.4, with Ko143 1 µM, Efflux ratio (ER) in the presence of Ko143, at all the tested concentrations, hCMEC/D3 monolayer, 1 μM Ko143): ~1
efflux ratio at 2 h, 300 µM (BCRP [1]; pH 7.4, with Ko143 1 µM, Efflux ratio (ER), hCMEC/D3 with inhibitor Ko143, 300 μM, hCMEC/D3 monolayer, 1 μM Ko143): 1.1
efflux ratio at 2 h, 600 μM (BCRP [1]; pH 7.4, with Ko143 1 μM, Efflux ratio (ER), hCMEC/D3 with inhibitor Ko143, 600 μM, hCMEC/D3 monolayer, 1 μM Ko143): 1.14
Compound: CCCC(CCC)C(=O)O [VPA, valproic acid]
BPZ accumulation in competitive substrate efflux assay in hCMEC/D3 cells (BCRP [2]): increased BPZ accumulation
Therapeutic plasma concentration range [3]: 300 to 600 µM
stimulation of BCRP ATPase activity (BCRP [4]): stimulated

Efflux ratio (ER), hCMEC/D3 without inhibitor Ko143 (BCRP [1]; 80 μM, hCMEC/D3 monolayer): 1.53
transport by BCRP (conclusion of bidirectional transport assay) (BCRP [1]; hCMEC/D3 monolayer): not
Papp A→B at 2 h, 40 μM (BCRP [1]; pH 7.4): 2.12 ×10⁻⁶ cm/s
Papp A→B at 2 h, 80 μM (BCRP [1]; pH 7.4): 3.09 ×10⁻⁶ cm/s
Papp B→A at 2 h, 40 μM (BCRP [1]; pH 7.4): 2.59 ×10⁻⁶ cm/s
Papp B→A at 2 h, 80 μM (BCRP [1]; pH 7.4): 3.36 ×10⁻⁶ cm/s
efflux ratio at 2 h, 40 μM (BCRP [1]; pH 7.4, Efflux ratio (ER), hCMEC/D3 without inhibitor Ko143, 40 μM, hCMEC/D3 monolayer): 1.28
efflux ratio at 2 h, 80 μM (BCRP [1]; pH 7.4, Efflux ratio (ER), hCMEC/D3 without inhibitor Ko143, 80 μM, hCMEC/D3 monolayer): 1.5
Papp A→B at 2 h, 40 μM (BCRP [1]; pH 7.4, with Ko143 1 μM): 2.71 ×10⁻⁶ cm/s
Papp A→B at 2 h, 80 μM (BCRP [1]; pH 7.4, with Ko143 1 μM): 2.03 ×10⁻⁶ cm/s
Papp B→A at 2 h, 40 μM (BCRP [1]; pH 7.4, with Ko143 1 μM): 3.07 ×10⁻⁶ cm/s
Papp B→A at 2 h, 80 μM (BCRP [1]; pH 7.4, with Ko143 1 μM): 2.12 ×10⁻⁶ cm/s
efflux ratio at 2 h, 40 μM (BCRP [1]; pH 7.4, with Ko143 1 μM, Efflux ratio (ER), hCMEC/D3 with inhibitor Ko143, 40 μM, hCMEC/D3 monolayer, 1 μM Ko143): 1.17
efflux ratio at 2 h, 80 μM (BCRP [1]; pH 7.4, with Ko143 1 μM, Efflux ratio (ER), hCMEC/D3 with inhibitor Ko143, 80 μM, hCMEC/D3 monolayer, 1 μM Ko143): 1.31
Compound: O=C1NC(=O)C(c2ccccc2)(c2ccccc2)N1 [PHT, phenytoin]
BPZ accumulation in competitive substrate efflux assay in hCMEC/D3 cells (BCRP [2]): increased BPZ accumulation
Therapeutic plasma concentration range [3]: 40 to 80 µM
stimulation of BCRP ATPase activity (BCRP [4]): stimulated

Source: publication PMC12555108, “In‐vitro Assessment of BCRP‐Mediated Efflux of Antiseizure Medications in Human Blood‐Brain Barrier Cell Model” (Journal of Biochemical and Molecular Toxicology, 2025)
